The results in this text go back to patent publication US6635245B1, “Strain of bacillus for controlling plant diseases” (priority 1999, dated 2003).

Common to all, as to format: in vivo
One assay has as its system Peronospora parasitica. Briefly: Plant test, downy mildew of Brassica. The conditions noted are these: Brassica seedlings, 0 to 5 scale.
The next assay deals with Bremia lactucae. Briefly: Plant test, downy mildew of lettuce (chemically-resistant strain). The following applies: lettuce seedlings, 0 to 5 scale.
In another assay the test system is Uromyces phaseoli. Briefly: Plant test, bean rust on snap bean. The conditions noted are these: snap bean seedlings; 40 ppm; 0 to 5 scale.
The subject of the next assay is Botrytis cinerea. Put plainly: B-30087 and B-21661 whole broths alone and together, gray mold on pepper. The following applies: 20 ppm, 0 to 5 scale. How it is done:
A strain of B. pumilus, NRRL B-30087 was tested with B. subtilis, NRRL B-21661, to determine if the fungicidal effect was greater if used together, than if each strain were used alone. Each strain was grown in a 10 liter or 5,000 liter fermenter, in a soy flour-based medium for approximately 50 hours. Each strain was tested as a whole broth culture against Botrytis cinerea gray mold on pepper, and Peronospora parasitica downy mildew on Brassica. The whole broths were tested at 1X, 1/2X and 1/8X. The two strains were then tested in various combinations with each other at 1/2X, 1/4X and 1/8X. A water check (control) and a chemical fungicide (BREAK® at 20 ppm) were also tested for comparison.

In another assay the test system is Phytophthora infestans. The following applies: tomato seedlings, 0-5 scale.
Another assay deals with Uncinula necator. Briefly: Plant test, grape powdery mildew. The conditions noted are these: grape seedlings (Chardonnay); 25 ppm; 0 to 5 scale. How it is done:
Grape seedlings (Chardonnay) were grown in two inch pots until the 6-9 true leaf stage. The culture of powdery mildew was maintained on grape seedlings at 22-26° C. under a 14 hour photoperiod. All but the youngest 2-4 leaves are removed. The NRRL Accession No. B-30087, the chemical fungicide (Rally®, myclobutanil at 25 ppm) and the water check are applied to runoff as above for the other pathogens tested. Four to five replications are used for each treatment. To inoculate with powdery mildew, leaves with mildew on maintenance seedlings are removed with scissors and each plant is inoculated individually. The surface of the maintenance seedling is gently brushed with a paintbrush so that spores are deposited onto the upper surface of the test plants. The procedure is performed using a 3× lighted magnification lens to assure all plants are getting equivalent inoculum. Flats with pots are placed in the dark for 16-24 hours at 20-24° C. Flats are kept at 22-26° C. with a 14 hour photoperiod for an additional 9-11 days until the test is read. […] The result using NRRL Accession No. B-30087 is shown below in Table 5.

Where two headings read alike, the source gives them in different places.

With `CCO[PH](=O)O` [Aliette, fosetyl-al], in the assay with Peronospora parasitica (240 ppm), the “Score Rep 1” value turned out to be 5.0 and the “Score Rep 2” value is reported as 3.0. In addition, in the assay with Bremia lactucae (240 ppm), the “Score Rep 1” value is recorded as 5.0 and the “Score Rep 2” value is 3.0.
Regarding `CCCC1COC(Cn2cncn2)(c2ccc(Cl)cc2Cl)O1` (stereo not drawn) [Break ®, propiconazole], in the assay with Uromyces phaseoli, the “Score Rep 1” value came to 0.0, the “Score Rep 2” value was found to be 0.0 and the “Score Rep 3” value is reported as 0.5. For the same compound, the “Botrytis cinerea Average disease rating (4 plants)” value in the assay on Botrytis cinerea was 0.2.
For `CO/C=C(/C(=O)OC)c1ccccc1Oc1cc(Oc2ccccc2C#N)ncn1` [Quadris, azoxystrobin], in the assay on Phytophthora infestans (62.5 ppm), the “Score Rep 1” value was 0.0, the “Score Rep 2” value was found to be 0.5, the “Score Rep 3” value was 0.0 and the “Score Rep 4” value is listed as 0.5. Besides, in the assay with Phytophthora infestans (62.5 ppm), the “Score Rep 5” value was found to be 0.0. Also, in the assay on Phytophthora infestans (125 ppm), the “Score Rep 1” value was determined as 0.0, the “Score Rep 2” value is recorded as 0.0, the “Score Rep 3” value is 0.0 and the “Score Rep 4” value is reported as 0.0. The “Score Rep 5” value with Phytophthora infestans (125 ppm) amounted to 0.0.
For the compound `CCCCC(C#N)(Cn1cncn1)c1ccc(Cl)cc1` (stereo not drawn) [Rally, myclobutanil], in the assay on Uncinula necator, the “Score Rep 1” value is 0.0, the “Score Rep 2” value came to 0.0, the “Score Rep 3” value is 0.0 and the “Score Rep 4” value worked out at 0.0.
Turning to `COCC(=O)N(c1c(C)cccc1C)C(C)C(=O)OC` (stereo not drawn) [Ridomil, metalaxyl], in the assay with Peronospora parasitica (125 ppm), the “Score Rep 1” value came out at 4.0, the “Score Rep 2” value was determined as 4.0 and the “Score Rep 3” value came to 4.0. In the assay on Bremia lactucae (125 ppm), the “Score Rep 1” value was determined as 3.0 and the “Score Rep 2” value was 3.0.
